The values that follow come from US7989599B2, “Activator including biosurfactant as active ingredient, mannosyl erythritol lipid, and production method thereof” (Toyo Boseki Kabushiki Kaisha, priority 2009, dated 2011).

A short description of this series: Ability to form liquid crystal, water-invading method. In kind it is physicochemical. Conditions: polarization microscope, compared with conventional MEL, FIGS. 10 and 11. The source says:
Evaluation of the ability to form liquid crystals can be made by a conventional and publicly known method. An example of the method for easily comparing the ability to form liquid crystals is a water invading method. In this method, MEL is applied on a slide glass and distilled water is dropped beside the applied area, and a liquid crystal phase formed at an interface by dropping of the distilled water is observed by a microscope. Thus, behavior of liquid crystal formation can be searched. With the method, it is possible to easily compare the conventional MEL with the MEL optical isomer of the present invention in terms of their abilities to form liquid crystals.
MEL produced by Pseudozyma tsukubaensis JCM 10324 strain obtained in Example 8 and conventional MEL produced by Pseudozyma antarctica KM-34 (FERMP-20730) strain were compared with each other by a water-invading method in terms of their abilities to form liquid crystal.

Take “1-(6′-acetyl-2′,3′-di-O-alka(ke)noyl-β-D-mannnopyranosyl-)meso-erythritol”: the “ability to form liquid crystal (lamella phase)” value is recorded as “has an ability to form lamella phase in a very wider concentration range than conventional MEL”.
